Measurements reported in publication PMC5384962, “First-in-human studies of seletalisib, an orally bioavailable small-molecule PI3Kδ inhibitor for the treatment of immune and inflammatory diseases” (European Journal of Clinical Pharmacology, 2017).

Assay: Study-1 Part-B safety/tolerability (adverse events, laboratory, OGTT), multiple doses
Details: for Deaths: Study-1 multiple doses
Experimental: In Study-1 (Part-B), a total of 27 subjects were enrolled, two cohorts of healthy subjects (n = 9 in each) and one cohort of subjects with mild-to-moderate psoriasis (n = 9). Subjects were randomised (2:1) to ascending multiple doses of seletalisib (5, 8 and 15 mg) or placebo for 14 days.
Adverse events (AEs), serious AEs (SAEs), routine clinical laboratory parameters, vital signs and ECGs were monitored throughout the study periods and for ≤7 days post-administration of final-dose of seletalisib/placebo. The potential for seletalisib to cause gastrointestinal (GI) tract adverse effects was assessed by careful monitoring of subject reports of AEs such as abdominal pain, bloating, nausea, vomiting and alteration of bowel function (e.g. diarrhoea, constipation or bleeding). A formal safety review was conducted before each dose escalation. In Study-1 (Part-B), the potential for seletalisib to interfere with insulin signalling was assessed by monitoring blood glucose and C-peptide levels as part of the standard laboratory tests and by performance of oral glucose tolerance tests, measuring glucose and C-peptide levels, pre-dose and during exposure in all cohorts.
In each study, the primary population for analysis was the full analysis set (FAS), which comprised all subjects who had received ≥1 dose of seletalisib or placebo. PK analysis was performed on the PK per-protocol set (PK-PPS), which was a subset of the FAS consisting of subjects with no important protocol deviations likely to affect PK variables who received seletalisib; subjects who received placebo were excluded from this analysis. In Study-1 and Study-2, sample sizes of 57 and 36 subjects, respectively, were considered sufficient to permit assessment of the safety and tolerability of seletalisib and were not based on statistical considerations of power and sample size. In Study-1 (Part-A), a panel size of 15 subjects was selected to achieve good estimates of the PK/PD parameters.

With `[O-][n+]1cccc(-c2nc3c(Cl)cccc3cc2[C@@H](Nc2ncnc3cccnc23)C(F)(F)F)c1` [Seletalisib, seletalisib] as the compound, how does the Deaths (5 mg, 14 days) read?
The Deaths was 0 n (%).

And the Deaths (8 mg, 14 days)?
The Deaths was 0 n (%).

And the Deaths (15 mg, 14 days (psoriasis cohort))?
The Deaths was 0 n (%).

And the Deaths (seletalisib total)?
Its Deaths is 0 n (%).

What about the “glucose handling versus baseline (oral glucose tolerance test)” value (in vivo) of the same compound?
Its value is “no significant alteration”.

What about the neutrophil counts (in vivo) of the same compound?
Its neutrophil counts is “Modest reductions”.

And the “number of AEs of potential GI disturbance” value (in vivo)?
Its value is “Six”.

What about the “number of moderate AEs” value (in vivo) of the same compound?
Its value is “three”.
